Test results published in PubChem BioAssay (NCI).
Several values for one entry are separate records, joined by “and”; a condition that tells them apart may be missing. Equal values may be shown once.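 48-hour exposure; five concentrations; linearly interpolated endpoints. The concentration for 50% growth inhibition is given as GI50. TGI marks complete inhibition of growth.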

These molecules were tested on SF-295 CNS (assay: NCI tumour cell line growth inhibition, 48 h).
Molecule O=C1CCCN1c1ccccc1I(=O)=O has a GI50 of over 100 µM and a TGI of over 100 µM.
For O=C(NCc1ccc(Cn2c(=O)sn(-c3ccccc3)c2=O)cc1)OCc1ccc2cccc(O)c2n1, the GI50 was 2.14 µM and the TGI was 5.82 µM.
COC(c1ccc(C(C)(C)C)cc1)(c1ccc(C(C)(C)C)cc1)c1ccc(C(C)(C)C)cc1 was tested, and the TGI was over 100 µM.
For Nc1ccccc1C(=O)/C=C/c1c(O)ccc2ccccc12, the TGI was over 100 µM.
For CC(C)c1[nH]nc2c1N=C(c1ccccc1Cl)c1cc([N+](=O)[O-])ccc1N2, the GI50 was 8.52 µM and the TGI was over 25 µM.
Work on Nc1cc2c(cc1Br)[nH]c(=O)c1ccccc12 yielded a GI50 of 10.2 µM and a TGI of 38.4 µM.
Work on COc1ccc(-c2nccn2-c2ccc(OC)cc2)cc1 yielded a GI50 of 21 µM and a TGI of 74.2 µM.
For O=C(/C=C/c1ccccc1)c1ccccc1, the TGI was over 10 µM.
For CC(C)[C@H](O)C(=O)N[C@@H](C)C(=O)N[C@@H]1C(=O)N(C)CCc2ccccc21, the GI50 was over 100 µM and the TGI was over 100 µM.
In the case of CC(C)=C1CCC(CN(C)C)C1=O (stereo unspecified), the TGI is reported as over 100 µM.
With COc1ccc(-c2cnnn2-c2nonc2-n2cccc2)cc1 the GI50 was 0.246 µM and the TGI was 6.21 µM.
Molecule COc1cccc(/C=N/[N-]C(=O)c2ccncc2)c1[O-].COc1cccc(/C=N/[N-]C(=O)c2ccncc2)c1[O-].[O]=[U](=[O])([OH2+])[OH2+] has a GI50 of 5.86 µM and a TGI of over 54.7 µM.
With ClC(Cl)=C1C(=C(Cl)Cl)C(Cl)(Cl)C1(Cl)Cl the TGI was 7.24 µM.
C#CCOc1cccc(Nc2ncnc3c(NC(=O)C=C)cccc23)c1 showed a GI50 of 27.4 µM and a TGI of over 100 µM.
Work on CO[C@H]1Nc2c(ccc(C)c2O)C(=O)N2C=C(/C=C/C(N)=O)C[C@@H]12 yielded a TGI of 1.75 µM.
With CCNC(=O)/C(=C/c1ccc(OC)cc1)c1cc(OC)c(OC)c(OC)c1 the TGI was 19.6 µM.
CCCc1cc(=O)n2c(C(=O)Nc3ccc(Cl)cc3C)c(C(=O)Nc3ccc(F)cc3)sc2n1 was tested, and the GI50 was 31.7 µM and the TGI was 131 µM.
With Cc1ccc(OCCOCCOCCOCCOc2ccc(C)n(O)c2=S)c(=S)n1O the GI50 was 0.0261 µM and the TGI was over 100 µM.
Work on N#CC(=Nc1ccccc1N(C(=O)c1ccccc1)C(=O)c1ccccc1)c1ccccc1 yielded a TGI of over 100 µM.
COC(=O)C(=O)C(C(C)=O)C(=O)NCc1ccc(OC)c(OC)c1 (stereo unspecified) gave a TGI of over 100 µM.
In the case of COc1ccc(-c2ccc3c(N4CCOC[C@@H]4C)nc(N4CCOC[C@@H]4C)nc3n2)cc1CO, the GI50 is reported as 0.00412 µM and < 0.011 µM and the TGI is reported as 0.0462 µM and 0.18 µM.
CCOC(=O)NC(=O)c1cn(C(CC)COC(=O)NCCCCCCNC(=O)OCC(CC)n2cc(C(=O)NC(=O)OCC)c(=O)[nH]c2=O)c(=O)[nH]c1=O (stereo unspecified) was tested, and the TGI was over 100 µM.
N[C@H](CCC(=O)N[C@@H](Cc1c[nH]c2ccccc12)C(=O)O)C(=O)O showed a GI50 of over 100 µM and a TGI of over 100 µM.
COc1ccc(-c2nc(-c3cc(OC)cc(OC)c3)[nH]c2-c2ccc(OC)cc2)cc1 showed a GI50 of 5.51 µM and a TGI of over 100 µM.
Nc1ccccc1O.O.O=C(O)C1[O][Sb][O]C1C(=O)O (stereo unspecified) was tested, and the GI50 was 39.9 µM and the TGI was over 100 µM.
Work on O=C(CC(=O)C1CCOC1=O)C(=O)Nc1cccc(Cl)c1 (stereo unspecified) yielded a TGI of over 100 µM.
For OC(c1cc(-c2ccc(C(F)(F)F)cc2)nc(C(F)(F)F)c1)C1CCCCN1 (stereo unspecified), the GI50 was 1.38 µM and 2.84 µM and the TGI was 2.7 µM and 6.54 µM.
In the case of CC(C)CC(C/C=C1/CC(CO)(COC(=O)C(C)(C)C)OC1=O)CC(C)C (stereo unspecified), the GI50 is reported as 12.2 µM and 1.7 µM and the TGI is reported as 36.7 µM and 12.7 µM.
Cc1cccc(C2=C/C(=C(\SS/C(C(=O)c3ccc(OCC(=O)O)c(Cl)c3Cl)=C3\C=C(c4cccc(C)c4)SS3)C(=O)c3ccc(OCC(=O)O)c(Cl)c3Cl)SS2)c1 was tested, and the TGI was over 85.6 µM.

What follows are molecules tested on OVCAR-4 ovarian (assay: NCI tumour cell line growth inhibition, 48 h).
Work on O=C1CCCN1c1ccccc1I(=O)=O yielded a GI50 of over 100 µM and a TGI of over 100 µM.
O=C(NCc1ccc(Cn2c(=O)sn(-c3ccccc3)c2=O)cc1)OCc1ccc2cccc(O)c2n1 gave a GI50 of 0.947 µM and a TGI of 2.28 µM.
COC(c1ccc(C(C)(C)C)cc1)(c1ccc(C(C)(C)C)cc1)c1ccc(C(C)(C)C)cc1 was tested, and the TGI was over 100 µM.
Nc1ccccc1C(=O)/C=C/c1c(O)ccc2ccccc12 was tested, and the TGI was over 100 µM.
CC(C)c1[nH]nc2c1N=C(c1ccccc1Cl)c1cc([N+](=O)[O-])ccc1N2 gave a GI50 of 8.06 µM and a TGI of over 24.2 µM.
In the case of Nc1cc2c(cc1Br)[nH]c(=O)c1ccccc12, the GI50 is reported as 2.55 µM and the TGI is reported as 38.5 µM.
COc1ccc(-c2nccn2-c2ccc(OC)cc2)cc1 was tested, and the GI50 was 30.2 µM and the TGI was over 100 µM.
O=C(/C=C/c1ccccc1)c1ccccc1 showed a TGI of over 10 µM.
With CC(C)[C@H](O)C(=O)N[C@@H](C)C(=O)N[C@@H]1C(=O)N(C)CCc2ccccc21 the GI50 was over 100 µM and the TGI was over 100 µM.
CC(C)=C1CCC(CN(C)C)C1=O (stereo unspecified) was tested, and the TGI was 28.4 µM.
For COc1ccc(-c2cnnn2-c2nonc2-n2cccc2)cc1, the GI50 was 1.78 µM and the TGI was over 100 µM.
COc1cccc(/C=N/[N-]C(=O)c2ccncc2)c1[O-].COc1cccc(/C=N/[N-]C(=O)c2ccncc2)c1[O-].[O]=[U](=[O])([OH2+])[OH2+] showed a GI50 of over 34.2 µM and a TGI of over 100 µM.
Work on ClC(Cl)=C1C(=C(Cl)Cl)C(Cl)(Cl)C1(Cl)Cl yielded a TGI of 16 µM.
C#CCOc1cccc(Nc2ncnc3c(NC(=O)C=C)cccc23)c1 was tested, and the GI50 was 37.8 µM and the TGI was over 100 µM.
CO[C@H]1Nc2c(ccc(C)c2O)C(=O)N2C=C(/C=C/C(N)=O)C[C@@H]12 showed a TGI of 0.686 µM.
Molecule CCNC(=O)/C(=C/c1ccc(OC)cc1)c1cc(OC)c(OC)c(OC)c1 has a TGI of over 100 µM.
With CCCc1cc(=O)n2c(C(=O)Nc3ccc(Cl)cc3C)c(C(=O)Nc3ccc(F)cc3)sc2n1 the GI50 was 2.57 µM and the TGI was 6.25 µM.
Cc1ccc(OCCOCCOCCOCCOc2ccc(C)n(O)c2=S)c(=S)n1O was tested, and the GI50 was under 0.0105 µM and the TGI was 55 µM.
For N#CC(=Nc1ccccc1N(C(=O)c1ccccc1)C(=O)c1ccccc1)c1ccccc1, the TGI was over 76.2 µM.
Work on COC(=O)C(=O)C(C(C)=O)C(=O)NCc1ccc(OC)c(OC)c1 (stereo unspecified) yielded a TGI of over 100 µM.
In the case of COc1ccc(-c2ccc3c(N4CCOC[C@@H]4C)nc(N4CCOC[C@@H]4C)nc3n2)cc1CO, the GI50 is reported as 0.00414 µM and < 0.0142 µM and the TGI is reported as 0.0382 µM and 0.12 µM.
CCOC(=O)NC(=O)c1cn(C(CC)COC(=O)NCCCCCCNC(=O)OCC(CC)n2cc(C(=O)NC(=O)OCC)c(=O)[nH]c2=O)c(=O)[nH]c1=O (stereo unspecified) showed a TGI of over 100 µM.
For N[C@H](CCC(=O)N[C@@H](Cc1c[nH]c2ccccc12)C(=O)O)C(=O)O, the GI50 was over 100 µM and the TGI was over 100 µM.
For COc1ccc(-c2nc(-c3cc(OC)cc(OC)c3)[nH]c2-c2ccc(OC)cc2)cc1, the GI50 was 4.03 µM and the TGI was over 100 µM.
Nc1ccccc1O.O.O=C(O)C1[O][Sb][O]C1C(=O)O (stereo unspecified) was tested, and the GI50 was 16 µM and the TGI was 30.6 µM.
O=C(CC(=O)C1CCOC1=O)C(=O)Nc1cccc(Cl)c1 (stereo unspecified) gave a TGI of over 100 µM.
OC(c1cc(-c2ccc(C(F)(F)F)cc2)nc(C(F)(F)F)c1)C1CCCCN1 (stereo unspecified) gave a TGI of 5.6 µM.
CC(C)CC(C/C=C1/CC(CO)(COC(=O)C(C)(C)C)OC1=O)CC(C)C (stereo unspecified) was tested, and the TGI was 34.9 µM and 30.6 µM.
With Cc1cccc(C2=C/C(=C(\SS/C(C(=O)c3ccc(OCC(=O)O)c(Cl)c3Cl)=C3\C=C(c4cccc(C)c4)SS3)C(=O)c3ccc(OCC(=O)O)c(Cl)c3Cl)SS2)c1 the TGI was over 70.2 µM.

Each molecule was assayed on HCC-2998 colon (assay: NCI tumour cell line growth inhibition, 48 h).
O=C1CCCN1c1ccccc1I(=O)=O gave a GI50 of over 100 µM and a TGI of over 100 µM.
For O=C(NCc1ccc(Cn2c(=O)sn(-c3ccccc3)c2=O)cc1)OCc1ccc2cccc(O)c2n1, the GI50 was 1.81 µM and the TGI was 3.51 µM.
COC(c1ccc(C(C)(C)C)cc1)(c1ccc(C(C)(C)C)cc1)c1ccc(C(C)(C)C)cc1 showed a TGI of over 100 µM.
Nc1ccccc1C(=O)/C=C/c1c(O)ccc2ccccc12 gave a TGI of over 100 µM.
With CC(C)c1[nH]nc2c1N=C(c1ccccc1Cl)c1cc([N+](=O)[O-])ccc1N2 the GI50 was 6.91 µM and the TGI was over 19.1 µM.
Molecule Nc1cc2c(cc1Br)[nH]c(=O)c1ccccc12 has a GI50 of 5.5 µM and a TGI of 17.1 µM.
For COc1ccc(-c2nccn2-c2ccc(OC)cc2)cc1, the GI50 was 16.4 µM and the TGI was 33.7 µM.
Work on O=C(/C=C/c1ccccc1)c1ccccc1 yielded a TGI of over 10 µM.
CC(C)[C@H](O)C(=O)N[C@@H](C)C(=O)N[C@@H]1C(=O)N(C)CCc2ccccc21 showed a GI50 of over 100 µM and a TGI of over 100 µM.
Molecule CC(C)=C1CCC(CN(C)C)C1=O (stereo unspecified) has a TGI of 33.2 µM.
For COc1ccc(-c2cnnn2-c2nonc2-n2cccc2)cc1, the GI50 was 0.235 µM and the TGI was 2.89 µM.
COc1cccc(/C=N/[N-]C(=O)c2ccncc2)c1[O-].COc1cccc(/C=N/[N-]C(=O)c2ccncc2)c1[O-].[O]=[U](=[O])([OH2+])[OH2+] gave a GI50 of 12.8 µM and a TGI of over 100 µM.
With ClC(Cl)=C1C(=C(Cl)Cl)C(Cl)(Cl)C1(Cl)Cl the TGI was 13.7 µM.
